{"source": "paper PMC7489219", "about": "(Molecular Brain, 2020)", "note": "Where a name gives a salt, the structure may show the parent alone."}
{"test_system": "T1, primary mouse cortical neurons", "T1 construct": "primary cortical neurons, DIV 10", "assay": "cells", "set-up": "Protection from NMDA-induced (30 uM, 10 min) neuronal death; Hoechst nuclear morphology by automated microscopy", "details": "Cortical neurone, 20 h, read-out: % inhibition, inhibition of NMDA-induced cell death (protection score), 30 min pre-treatment", "summary_of_the_method": "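On DIV 10, primary mouse cortical neurons were given compound at 10 μM for 30 min at 37 °C, then 30 μM NMDA for 10 min, washed, and kept 20 h with compound. Dead cells were scored by nuclear morphology, and % protection was derived from survival relative to vehicle + NMDA and untreated controls.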", "units": {"inhibition at 10 µM": "%"}}
{"smiles": "CN(C)[C@@H]1C(=O)C(C(N)=O)=C(O)[C@@]2(O)C(=O)C3=C(O)c4c(O)cccc4[C@@](C)(O)[C@H]3[C@H](O)[C@@H]12", "note": "[Oxytetracycline (Terramycin)]", "inhibition at 10 µM": 2.79}
{"smiles": "CN1[C@@H]2CC(OC(=O)[C@H](CO)c3ccccc3)C[C@H]1[C@@H]1O[C@@H]12", "note": "(stereo partly shown) [Scopolamine hydrobromide]", "inhibition at 10 µM": -0.0258}
{"smiles": "C[C@H]1COC2=C1C(=O)C(=O)c1c2ccc2c1CCCC2(C)C", "note": "[Cryptotanshinone]", "inhibition at 10 µM": -2.15}
{"smiles": "CNC[C@@H](O)c1ccc(O)c(O)c1", "note": "[L-Adrenaline (Epinephrine)]", "inhibition at 10 µM": 0.37}
{"smiles": "Cc1cn([C@H]2C=C[C@@H](CO)O2)c(=O)[nH]c1=O", "note": "[Stavudine]", "inhibition at 10 µM": 6.33}
{"smiles": "C[C@H]1[C@H](C)CC[C@]2(C(=O)O)CC[C@]3(C)C(=CC[C@@H]4[C@@]5(C)C[C@@H](O)[C@H](O)[C@@](C)(CO)[C@@H]5CC[C@]43C)[C@H]12", "note": "[Asiatic acid]", "inhibition at 10 µM": -2.44}
{"smiles": "CNCC(O)c1ccc(O)cc1", "note": "(stereo not shown) [Synephrine (Oxedrine)]", "inhibition at 10 µM": 3.83}
{"smiles": "COc1ccc(-c2cc(=O)c3c(O)cc(O)cc3o2)cc1O", "note": "[Diosmetin (Luteolin 4-methyl ether)]", "inhibition at 10 µM": 8.81}
{"smiles": "CNC(=C[N+](=O)[O-])NCCSCc1csc(CN(C)C)n1", "note": "[Nizatidine]", "inhibition at 10 µM": -2.67}
{"smiles": "NCCCC(O)(P(=O)(O)O)P(=O)(O)O", "note": "[Alendronate (Fosamax)]", "inhibition at 10 µM": 40.1}
{"smiles": "O=c1[nH]cnc2c1ncn2[C@@H]1O[C@H](CO)[C@@H](O)[C@H]1O", "note": "[Inosine]", "inhibition at 10 µM": 19.8}
{"smiles": "O=c1n(CCCN2CCN(c3cccc(Cl)c3)CC2)nc2ccccn12", "note": "[Trazodone hydrochloride (Desyrel)]", "inhibition at 10 µM": -1.4}
{"smiles": "CCOC(=O)[C@H](CCc1ccccc1)N[C@@H](C)C(=O)N1CCC[C@H]1C(=O)O", "note": "[Enalapril maleate (Vasotec)]", "inhibition at 10 µM": 54.5}
{"smiles": "C[C@]12CC[C@@H]3c4ccc(O)cc4CC[C@H]3[C@@H]1CCC2=O", "note": "[Estrone]", "inhibition at 10 µM": -2.18}
{"smiles": "Clc1cccc(Cl)c1NC1=NCCN1", "note": "[Clonidine hydrochloride (Catapres)]", "inhibition at 10 µM": -1.98}
{"smiles": "COC[C@@H](c1ccc(C(F)(F)F)cc1)N1CCN(C2(C)CCN(C(=O)c3c(C)ncnc3C)CC2)C[C@@H]1C", "note": "[Vicriviroc Malate]", "inhibition at 10 µM": 0.113}
{"smiles": "Nc1nc2[nH]cc(CCc3ccc(C(=O)N[C@@H](CCC(=O)O)C(=O)O)cc3)c2c(=O)[nH]1", "note": "[Pemetrexed]", "inhibition at 10 µM": 0.519}
{"smiles": "O=C1Cc2cc(CCN3CCN(c4nsc5ccccc45)CC3)c(Cl)cc2N1", "note": "[Ziprasidone hydrochloride]", "inhibition at 10 µM": 8.38}
{"smiles": "COC(=O)N[C@H](C(=O)N[C@@H](Cc1ccccc1)[C@@H](O)CN(Cc1ccc(-c2ccccn2)cc1)NC(=O)[C@@H](NC(=O)OC)C(C)(C)C)C(C)(C)C", "note": "[Atazanavir sulfate]", "inhibition at 10 µM": 2.12}
{"smiles": "O=C1CCc2cc(OCCCCc3nnnn3C3CCCCC3)ccc2N1", "note": "[Cilostazol]", "inhibition at 10 µM": -13.8}
{"smiles": "CC(=O)O[C@]1(C(C)=O)CC[C@H]2[C@@H]3C=C(C)C4=CC(=O)CC[C@]4(C)[C@H]3CC[C@@]21C", "note": "[Megestrol Acetate]", "inhibition at 10 µM": -7.04}
{"smiles": "CCOC(=O)[C@H](CCc1ccccc1)N[C@H]1CCc2ccccc2N(CC(=O)O)C1=O", "note": "[Benazepril hydrochloride]", "inhibition at 10 µM": -11.1}
{"smiles": "COc1cc2/c(=N/c3ccc(Br)cc3F)nc[nH]c2cc1OCC1CCN(C)CC1", "note": "[Vandetanib (Zactima)]", "inhibition at 10 µM": -8.86}
{"smiles": "COc1ccc(-c2ccc3cc(C(=O)O)ccc3c2)cc1[C@]12C[C@H]3C[C@H](C[C@H](C3)C1)C2", "note": "[Adapalene]", "inhibition at 10 µM": 63.6}
{"smiles": "O=C(O)c1cc(O)c2c(c1)C(=O)c1cccc(O)c1C2=O", "note": "[Rhein (Monorhein)]", "inhibition at 10 µM": 5.39}
{"smiles": "CO[C@H]1C[C@@H]2CC[C@@H](C)[C@@](O)(O2)C(=O)C(=O)N2CCCC[C@H]2C(=O)O[C@H]([C@H](C)C[C@@H]2CC[C@@H](O)[C@H](OC)C2)CC(=O)[C@H](C)/C=C(\\C)[C@@H](O)[C@@H](OC)C(=O)[C@H](C)C[C@H](C)/C=C/C=C/C=C/1C", "note": "[Rapamycin (Sirolimus)]", "inhibition at 10 µM": -1.51}
{"smiles": "C#C[C@]1(O)C=C[C@H]2[C@@H]3CCC4=CC(=O)CC[C@@H]4[C@H]3CC[C@@]21CC", "note": "[Gestodene]", "inhibition at 10 µM": -1.48}
{"smiles": "CC(C)c1nc(CN(C)C(=O)N[C@H](C(=O)N[C@@H](Cc2ccccc2)C[C@H](O)[C@H](Cc2ccccc2)NC(=O)OCc2cncs2)C(C)C)cs1", "note": "[Ritonavir]", "inhibition at 10 µM": -1.84}
{"smiles": "COc1cc([C@H]2Oc3ccc([C@H]4Oc5cc(O)cc(O)c5C(=O)[C@@H]4O)cc3O[C@@H]2CO)ccc1O", "note": "[Silymarin (Silybin B)]", "inhibition at 10 µM": 10}
{"smiles": "O=C1C[C@@H](c2ccc(O)cc2)Oc2cc(O)cc(O)c21", "note": "[Naringenin]", "inhibition at 10 µM": -3.44}
{"smiles": "CN1[C@@H]2CC[C@H]1C[C@@H](OC(=O)c1c[nH]c3ccccc13)C2", "note": "[Tropisetron]", "inhibition at 10 µM": -4.08}
{"smiles": "COc1c(N2CCNC(C)C2)c(F)cc2c(=O)c(C(=O)O)cn(C3CC3)c12", "note": "(stereo not shown) [Gatifloxacin]", "inhibition at 10 µM": -10.3}
{"smiles": "Cc1cc(=O)oc2cc(O)ccc12", "note": "[4-Methylumbelliferone (4-MU)]", "inhibition at 10 µM": -0.113}
{"smiles": "C[N+](C)(C)C[C@H](O)CC(=O)[O-]", "note": "[L-carnitine (Levocarnitine)]", "inhibition at 10 µM": 3.2}
{"smiles": "Cc1nc2n(c(=O)c1CCN1CCC(c3noc4cc(F)ccc34)CC1)CCCC2", "note": "[Risperidone (Risperdal)]", "inhibition at 10 µM": 23.7}
{"smiles": "C=CC[N+]1([C@H]2C[C@H]3[C@@H]4CC[C@H]5C[C@H](O)[C@@H](N6CCOCC6)C[C@]5(C)[C@H]4CC[C@]3(C)[C@H]2OC(C)=O)CCCC1", "note": "[Rocuronium bromide]", "inhibition at 10 µM": -0.727}
{"smiles": "C[C@@H]1O[C@@H](O[C@H]2[C@H](Oc3cc(O)c(C(=O)CCc4ccc(O)cc4)c(O)c3)O[C@H](CO)[C@@H](O)[C@@H]2O)[C@H](O)[C@H](O)[C@H]1O", "note": "[Naringin Dihydrochalcone (Naringin DC)]", "inhibition at 10 µM": 7.97}
{"smiles": "Cc1oncc1C(=O)Nc1ccc(C(F)(F)F)cc1", "note": "[Leflunomide]", "inhibition at 10 µM": 15.6}
{"smiles": "CCC1=C(C)CN(C(=O)NCCc2ccc(S(=O)(=O)NC(=O)N[C@H]3CC[C@H](C)CC3)cc2)C1=O", "note": "[Glimepiride]", "inhibition at 10 µM": -11.4}
{"smiles": "CN(C)C(=O)C(CCN1CCC(O)(c2ccc(Cl)cc2)CC1)(c1ccccc1)c1ccccc1", "note": "[Loperamide hydrochloride]", "inhibition at 10 µM": -2.48}
{"smiles": "COc1cc2c(cc1OC)C(=O)C(CC1CCN(Cc3ccccc3)CC1)C2", "note": "(stereo not shown) [Donepezil HCl (Aricept)]", "inhibition at 10 µM": -8.98}
{"smiles": "OCc1c[nH]c2ccccc12", "note": "[Indole-3-carbinol]", "inhibition at 10 µM": -2.03}
{"smiles": "NS(=O)(=O)c1cc2c(cc1Cl)N=CNS2(=O)=O", "note": "[Chlorothiazide]", "inhibition at 10 µM": 31.3}
{"smiles": "Cc1cccc(Nc2ccncc2S(=O)(=O)NC(=O)NC(C)C)c1", "note": "[Torsemide (Demadex)]", "inhibition at 10 µM": 22}
{"smiles": "CN/C(=N\\CCSCc1nc[nH]c1C)NC#N", "note": "[Cimetidine (Tagamet)]", "inhibition at 10 µM": -0.847}
{"smiles": "COc1ccccc1OCC(O)COC(N)=O", "note": "(stereo not shown) [Methocarbamol (Robaxin)]", "inhibition at 10 µM": -0.235}
{"smiles": "CC1(C)CCC[C@]2(C)[C@H]3CC(=O)O[C@]3(C)CC[C@@H]12", "note": "[Sclareolide (Norambreinolide)]", "inhibition at 10 µM": 28.8}
{"smiles": "O=c1c2ccccc2oc2ccccc12", "note": "[Xanthone (Genicide)]", "inhibition at 10 µM": 7.85}
{"smiles": "C=C1[C@H](CO)[C@@H](O)C[C@@H]1n1cnc2c(=O)[nH]c(N)nc21", "note": "[Entecavir hydrate]", "inhibition at 10 µM": 3.22}
{"smiles": "Nc1ccn([C@H]2CC[C@@H](CO)O2)c(=O)n1", "note": "[Zalcitabine]", "inhibition at 10 µM": 3.28}
{"smiles": "COc1c(N2C[C@@H]3CCCN[C@@H]3C2)c(F)cc2c(=O)c(C(=O)O)cn(C3CC3)c12", "note": "[Moxifloxacin hydrochloride]", "inhibition at 10 µM": 0.0291}
{"smiles": "COc1ccc([C@@H]2CC(=O)c3c(O)cc(O)cc3O2)cc1O", "note": "[Hesperetin]", "inhibition at 10 µM": -3.04}
{"smiles": "O=C1Nc2ccccc2/C1=C1/Nc2ccccc2C1=O", "note": "[Indirubin]", "inhibition at 10 µM": 8.04}
{"smiles": "NCCCCCC(=O)O", "note": "[Aminocaproic acid (Amicar)]", "inhibition at 10 µM": 25.5}
{"smiles": "C[C@@H]1C[C@H]2[C@@H]3CCC4=CC(=O)C=C[C@]4(C)[C@@]3(F)[C@@H](O)C[C@]2(C)[C@@]1(O)C(=O)CO", "note": "[Dexamethasone]", "inhibition at 10 µM": -9.25}
{"smiles": "CCC(=O)NCC[C@@H]1CCc2ccc3c(c21)CCO3", "note": "[Ramelteon (TAK-375)]", "inhibition at 10 µM": -3.3}
{"smiles": "CC(C)Cn1cnc2c(N)nc3ccccc3c21", "note": "[Imiquimod]", "inhibition at 10 µM": -8.7}
{"smiles": "O=C(O)C(O)Cc1ccc(O)c(O)c1", "note": "(stereo not shown) [Sodium Danshensu]", "inhibition at 10 µM": 6.44}
{"smiles": "CCCCCCCCCCC[C@@H](C[C@@H]1OC(=O)[C@H]1CCCCCC)OC(=O)[C@H](CC(C)C)NC=O", "note": "[Orlistat (Alli, Xenical)]", "inhibition at 10 µM": -9.87}
{"smiles": "CO[C@@H]1[C@@H](OC(N)=O)[C@@H](O)[C@H](Oc2ccc3c(O)c(NC(=O)c4ccc(O)c(CC=C(C)C)c4)c(=O)oc3c2C)OC1(C)C", "note": "[Novobiocin sodium (Albamycin)]", "inhibition at 10 µM": -0.631}
{"smiles": "Nc1nc(=O)n([C@@H]2CS[C@H](CO)O2)cc1F", "note": "[Emtricitabine (Emtriva)]", "inhibition at 10 µM": 14.4}
{"smiles": "Cn1c(=O)c2[nH]cnc2n(C)c1=O", "note": "[Aminophylline (Truphylline)]", "inhibition at 10 µM": 12}
{"smiles": "CO[C@H]1/C=C/O[C@@]2(C)Oc3c(C)c(O)c4c(O)c(c5c(c4c3C2=O)=NC2(CCN(CC(C)C)CC2)N=5)NC(=O)/C(C)=C\\C=C\\[C@H](C)[C@H](O)[C@@H](C)[C@@H](O)[C@@H](C)[C@H](OC(C)=O)[C@@H]1C", "note": "[Rifabutin (Mycobutin)]", "inhibition at 10 µM": -2.35}
{"smiles": "C=CCc1ccc(O)c(-c2cc(CC=C)ccc2O)c1", "note": "[Magnolol]", "inhibition at 10 µM": -3.4}
{"smiles": "C[C@@H]1CC[C@H]2[C@@H](C)C(O)O[C@@H]3O[C@@]4(C)CC[C@@H]1[C@]32OO4", "note": "(stereo partly shown) [Dihydroartemisinin (DHA)]", "inhibition at 10 µM": -4.3}
{"smiles": "O=C(c1ccc(OCCN2CCCCC2)cc1)c1c(-c2ccc(O)cc2)sc2cc(O)ccc12", "note": "[Evista (Raloxifene Hydrochloride)]", "inhibition at 10 µM": -19.3}
{"smiles": "CCCc1nn(C)c2c(=O)[nH]c(-c3cc(S(=O)(=O)N4CCN(C)CC4)ccc3OCC)nc12", "note": "[Sildenafil citrate]", "inhibition at 10 µM": 4.4}
